Measured values as given in patent US9051612B2, “Compositions and methods for nucleotide sequencing” (Illumina, Inc., priority 2006, dated 2015).

Molecular target: T1, calf intestinal alkaline phosphatase (Bos taurus, UniProt P19111)
T1 construct: purchased USB
Assay: Enzymatic removal of 2′ phosphate blocking group with alkaline phosphatase
Assay type: biochemical
Settings: aqueous buffer, room temperature

T1 sequence (P19111 20-506): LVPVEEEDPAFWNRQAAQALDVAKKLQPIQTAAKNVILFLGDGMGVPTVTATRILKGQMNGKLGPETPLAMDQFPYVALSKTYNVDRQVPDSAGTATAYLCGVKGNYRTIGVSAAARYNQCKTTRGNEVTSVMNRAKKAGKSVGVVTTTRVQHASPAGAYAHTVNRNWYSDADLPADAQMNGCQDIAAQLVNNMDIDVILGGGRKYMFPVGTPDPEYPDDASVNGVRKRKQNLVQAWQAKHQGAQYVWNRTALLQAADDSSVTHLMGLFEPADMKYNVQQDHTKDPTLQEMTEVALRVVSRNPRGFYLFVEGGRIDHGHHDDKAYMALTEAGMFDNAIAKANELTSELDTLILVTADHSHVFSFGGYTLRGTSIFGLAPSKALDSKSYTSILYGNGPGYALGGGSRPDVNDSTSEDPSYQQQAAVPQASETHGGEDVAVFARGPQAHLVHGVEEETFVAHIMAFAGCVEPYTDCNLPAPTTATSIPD

O=c1ccn(C2OC(COP(=O)(O)OP(=O)(O)OP(=O)(O)O)C(O)C2OP(=O)(O)O)c(=O)[nH]1 (stereo not shown) [2′ reversible terminator, 2′-phosphate UTP]
removal of the phosphate blocking group: can be quantitatively removed using alkaline phosphatase in less than one minute
